# Measured values as given in patent publication US10626136B2, “Compositions and methods for improving Rebaudioside X solubility” (The Coca-Cola Company, priority 2012, dated 2020).
# What was measured:
# Type in all cases: physicochemical
# [1] = Approximate water solubility by solvent addition method (aliquots of water, visual inspection)
# Protocol: The approximate aqueous solubility can be determined by a solvent addition method in which a weighed sample is treated with aliquots of water. The mixture is generally vortexed and/or sonicated between additions to facilitate dissolution. Complete dissolution of the test material is determined by visual inspection. Solubility is estimated based on the total solvent used to provide complete dissolution.
# (§1) The approximate water solubility of Form A and amorphous Rebaudioside X were determined by a solvent addition method in which a weighed sample was treated with aliquots of water. The mixture was generally vortexed and/or sonicated between additions to facilitate dissolution. Complete dissolution of the test material was determined by visual inspection. Solubility was estimated based on the total solvent used to provide complete dissolution. The actual solubility may be greater than the value calculated because of the use of solvent aliquots that were too large or due to a slow rate of dissolution.
# as §1, with “approximate” for “approximate water”, “the complexes was measured” for “Form A and amorphous Rebaudioside X were determined”
# [2] = Equilibrium solubility in water by UV (205 nm)
# Protocol: Samples were analyzed with a Cary 50 UV-Vis dual beam spectrophotometer. The detector was zeroed with a cuvette filled with water prior to sample analysis. Samples were analyzed at room temperature in 1.0 cm quartz cuvette using a scan rate of 600 nm/min in a range of 200-400 nm.
# 25.8 mg of amorphous Rebaudioside X was added to a 10-mL volumetric flask and dissolved 10 mL with water. This stock solution was diluted to five concentration levels for UV measurement.
# A calibration curve at 205 nm was established (Abs at 205 nm vs. concentration) to provide the equation y=5.0625x+0.0022. R^2 was 0.9999. This equation was used for the subsequent determination of Rebaudioside X concentrations.
# 250 mg of amorphous Rebaudioside X was added to an amber vial and 10 mL of water was added. The mixture was stirred at room temperature about 10 minutes to yield a transparent solution with only small amount of solid remaining. The mixture became opaque rapidly. The mixture was placed on a mechanical oscillator set at a speed of 250 and 25° C. At the sampling time point of 1, 16, 24, 48, 72, 96, and 192 hours, an aliquot of the slurry was transferred to a centrifuge tube and separated at a speed of 16K rcf for 15 minutes. 200 μL of the clear supernatant was transferred to a 50-mL volumetric flask, 10 mL of water was added and mixed well before UV analysis.
# [3] = Water solubility of material before and after the water process (Example 4); settings: Example 4, before and after heating to 121° C. in water and spray drying
# [4] = Duration of clarity of aqueous solutions, with or without filtration
# Text: The water solubility of amorphous Rebaudioside X prepared according to Example 4 was compared in various test material/water ratios with or without filtration prior to solubility determination. Generally, filtration performed after dissolution of sample assist the duration of clarity of the sample (or delays the precipitation/recrystallization of sample).
# [5] = Dynamic Vapor Sorption (DVS)
# Protocol: The Dynamic Vapor Sorption (DVS) DVS data were collected on a VTI SGA-100 Vapor Sorption Analyzer. NaCl and PVP were used as calibration standards. The sample was not dried prior to analysis. Sorption and desorption data were collected over a range from 5 to 95% RH at 10% RH increments under a nitrogen purge. The equilibrium criterion used for analysis was less than 0.0100% weight change in 5 minutes with a maximum equilibration time of 3 hours. Data were not corrected for the initial moisture content of the samples.
smiles,measurement,setting,value
C=C1C[C@@]23CCC4[C@](C)(C(=O)OC5OC(CO)C(O)C(OC6OC(CO)C(O)C(O)C6O)C5OC5OC(CO)C(O)C(O)C5O)CCC[C@@]4(C)[C@@H]2CCC1(OC1OC(CO)C(O)C(OC2OC(CO)C(O)C(O)C2O)C1OC1OC(CO)C(O)C(O)C1O)C3 (stereo partly drawn) [Amorphous (water process)],Approximate Water Solubility,[1],>10000 µg/mL
C=C1C[C@@]23CC[C@H]4[C@@](C)(CCC[C@@]4(C)C(=O)O[C@@H]4O[C@H](CO)[C@@H](O)[C@H](O[C@@H]5O[C@H](CO)[C@@H](O)[C@H](O)[C@H]5O)[C@H]4O[C@@H]4O[C@H](CO)[C@@H](O)[C@H](O)[C@H]4O)[C@@H]2CC[C@]1(O[C@@H]1O[C@H](CO)[C@@H](O)[C@H](O[C@@H]2O[C@H](CO)[C@@H](O)[C@H](O)[C@H]2O)[C@H]1O[C@@H]1O[C@H](CO)[C@@H](O)[C@H](O)[C@H]1O)C3 [amorphous Rebaudioside X],approximate aqueous solubility,[1],greater than 0.3%
same,approximate water solubility compared to Form A Rebaudioside X,[1],substantially increased
same,Average Sample Concentration,"[2]; 250 mg in 10 mL water, 25° C.",Average Sample Concentration = 2.6 mg/mL
same,Original Sample Concentration,"[2]; 250 mg in 10 mL water, 25° C., sampling time 1 hrs",5.8 mg/mL
same,Original Sample Concentration,"[2]; 250 mg in 10 mL water, 25° C., sampling time 16 hrs",2.7 mg/mL
same,Original Sample Concentration,"[2]; 250 mg in 10 mL water, 25° C., sampling time 24 hrs",2.6 mg/mL
same,Original Sample Concentration,"[2]; 250 mg in 10 mL water, 25° C., sampling time 48 hrs",2.5 mg/mL
same,Original Sample Concentration,"[2]; 250 mg in 10 mL water, 25° C., sampling time 72 hrs",2.8 mg/mL
same,Original Sample Concentration,"[2]; 250 mg in 10 mL water, 25° C., sampling time 96 hrs",2.8 mg/mL
same,Original Sample Concentration,"[2]; 250 mg in 10 mL water, 25° C., sampling time 192 hrs",2.6 mg/mL
same,XRPD pattern of the solids recovered after solubility testing,[2]; after 8 days solubility testing in water,"consistent with Form A, indicating conversion"
same,water solubility,[3],greater than 1%
same,Duration of Clarity of Sample,"[4]; Sample 1: 250 mg/500 mL water, not filtered",>60 days
same,Duration of Clarity of Sample,"[4]; Sample 2: 500 mg/500 mL water, not filtered",>60 days
same,Duration of Clarity of Sample,"[4]; Sample 4: 1000 mg/500 mL water, not filtered","^bMost Rebaudioside X dissolved quickly. However, a small amount of floating particles remained."
same,Duration of Clarity of Sample,"[4]; Sample 6: 1750 mg/500 mL water, not filtered",~0.12 days
same,Duration of Clarity of Sample,"[4]; Sample 8: 1000 mg/100 mL water, filtered (0.22 μm membrane)",~0.083 days
same,solids recovered after DVS,[5]; XRPD after the DVS analysis,x-ray amorphous
same,weight loss upon desorption,[5]; desorption from 95% to 5% RH,26.0 wt %
same,weight loss upon equilibration,[5]; equilibration at 5% RH,3.1 wt %
same,weight gain on sorption,[5]; increasing the relative humidity from 5% to 95% RH,26.3 wt %
same,hygroscopicity,[5]; judged from the large weight change,hygroscopic
C=C1C[C@@]23CCC4[C@](C)(C(=O)OC5OC(CO)C(O)C(OC6OC(CO)C(O)C(O)C6O)C5OC5OC(CO)C(O)C(O)C5O)CCC[C@@]4(C)[C@@H]2CCC1(OC1OC(CO)C(O)C(OC2OC(CO)C(O)C(O)C2O)C1OC1OC(CO)C(O)C(O)C1O)C3 (stereo partly drawn) [Form A],Approximate Water Solubility,[1],1400 µg/mL
same,approximate aqueous solubility,[1],0.1 to about 0.14
same,water solubility,[3]; listed as Form A Rebaudioside X,0.05%
C=C1C[C@@]23CCC4[C@](C)(C(=O)OC5OC(CO)C(O)C(OC6OC(CO)C(O)C(O)C6O)C5OC5OC(CO)C(O)C(O)C5O)CCC[C@@]4(C)[C@@H]2CCC1(OC1OC(CO)C(O)C(OC2OC(CO)C(O)C(O)C2O)C1OC1OC(CO)C(O)C(O)C1O)C3 (stereo partly drawn) [Amorphous (ethanol process)],Approximate Water Solubility,[1],>10000 µg/mL
